Assay results from US10314920B2, “Therapeutic dendrimers” (ASTRAZENECA AB, priority 2017, dated 2019).
In brackets after ≈: the same amount, converted by molar mass. Several values for one entry are separate records, joined by “and”; a condition that tells them apart may be missing. Equal values may be shown once. Entries after “also recorded” stand apart in the source; their conditions may differ.

Assays:
SuDHL-4 xenograft = SuDHL-4 xenograft model in SCID mice, alone and with rituximab; format: in vivo, mouse
Method: The SuDHL-4 xenograft model was used to test the ability of Examples 6 and 9 to enhance the activity of rituximab in inhibiting tumor growth. When tumors grew to approximately 175-250 mm^3, mice were randomized to the following groups:
The tumor sizes were measured 2 times a week and calculated as: Tumor Volume=(A×B^2)/2 where A and B are the tumor length and width (in mm), respectively.
Table 17 summarizes the tumor growth inhibition (TIC) and tumor growth delay (T-C) values calculated as % Inhibition & % Regression. The calculation is based on the geometric mean of RTV in each group.
(§1) On specific day, for each treated group, calculate Inhibition value by formula: Inhibition %=(CG−TG)*100/(CG−1), in which “CG” means the geometric mean of rtv of the control group and “TG” means the Geometric Mean of Relative Tumor Volume (rtv) of the treated group. “CG” should use the corresponding control group of the treated group when calculated. If Inhibition >100%, then it's necessary to calculate the Regression by formula: Regression=1−TG

OCI-Ly10 tumor cells = experiment: In vivo anti-tumor activity in human DLBCL model (OCI-Ly10); design: species or system mouse; conditions: single agent, 12.5 mg/kg twice a day oral
Method: 5×10^6 OCI-Ly10 tumor cells were injected subcutaneously in the right flank of C.B.-17 SCID female mice in a volume of 0.1 mL containing 50% matrigel. Example 9 was formulated in citrate/phosphate buffer pH 5.0, diluted 1 to 10 with 5% glucose containing 1% w/v Kolliphor HS15, and dosed as a weekly intravenous (iv) administration at a volume of 5 mL/kg at a dose of 103 mg/kg (30 mg/kg API). Acalabrutinib was formulated in 0.5% hydroxypropyl methyl cellulose/0.2% Tween 80, and dosed twice a day (bid) as an oral (po) administration at a volume of 10 mL/kg at a dose of 12.5 mg/kg. Tumor volumes (measured by caliper), animal body weight, and tumor condition were recorded twice weekly for the duration of the study. The tumor volume was calculated using the formula:length (mm)×width (mm)^2×0.52. For efficacy studies, growth inhibition from the start of treatment was assessed by comparison of the differences in tumor volume between control and treated groups. Dosing began when mean tumor size reached approximately 166 mm3.

[1] = Plasma protein binding, Equilibrium Dialysis RED device, rabbit plasma; format: in vitro ADME; conditions: female, New Zealand White, pooled frozen plasma, 30 hours at 37° C., read-out: percentage unbound
Method: (§2) Protein binding of Compound A (prepared as DMSO stock solutions and spiked into plasma at nominal incubation concentrations of 0.1, 1, 10 and 100 μmol/L) was evaluated in pooled frozen plasma obtained from male CD-1 mice, male Han Wistar rats, female New Zealand White rabbits, male Beagle dogs and male humans in triplicate using Equilibrium Dialysis RED device methodology (Waters N J et al., Validation of a Rapid Equilibrium Dialysis Approach for the Measurement of Plasma Protein Binding, Journal of Pharmaceutical Sciences; 2008; Volume 97; Issue 10; Pages 4586-4595, 2008). Incubations were conducted over an equilibration time of 30 hours at 37° C. Sample analysis was by HPLC-MS/MS and employed an [^13C, ^2H7] Compound A internal standard using the following bioanalytical method: […]

RS4;11 cells = experiment: Efficacy of dendrimers in RS4;11 xenograft model in mice; format: in vivo, mouse
Method: 5×10^6 RS4;11 cells in a total volume of 100 μl were inoculated subcutaneously at the mouse right flank. When the tumor volume reached approximately ˜350 mm^3, tumor-bearing mice were randomized into groups of 4 animals and treated with either control Vehicle (PBS) or treatment.
as §1

[2] = Plasma protein binding, Equilibrium Dialysis RED device, mouse plasma; format: in vitro ADME; conditions: male, CD-1, pooled frozen plasma, 30 hours at 37° C., read-out: percentage unbound
Method: as §2

[3] = Plasma protein binding, Equilibrium Dialysis RED device, human plasma; format: in vitro ADME; conditions: male, pooled frozen plasma, 30 hours at 37° C., read-out: percentage unbound
Method: as §2

[4] = Plasma protein binding, Equilibrium Dialysis RED device, dog plasma; format: in vitro ADME; conditions: male, Beagle, pooled frozen plasma, 30 hours at 37° C., read-out: percentage unbound
Method: as §2

[5] = Log D, octanol/water shake-flask; format: physicochemical; conditions: octanol / 10 mM sodium phosphate buffer pH 7.4
Method: Lipophilicity (Log D) of Compound A was measured using octanol/water shake-flask principles. The aqueous solution used was a 10 mM sodium phosphate buffer with pH adjusted to 7.4. Octanol was used as the organic partitioning layer.

[6] = Plasma protein binding, Equilibrium Dialysis RED device, rat plasma; format: in vitro ADME; conditions: male, Han Wistar, pooled frozen plasma, 30 hours at 37° C., read-out: percentage unbound
Method: as §2

[7] = Solubility of Compound A (Form B), shake flask method; format: physicochemical; conditions: thermodynamic from solid, crystalline Form B, room temperature 24 hours
Method: The solubility of Compound A (Form B) was determined in water and propylene glycol. […] The solutions were centrifuged using ultra centrifuge for 30 min at 40,000 rpm, supernatant were transferred to a new centrifuge tube and centrifuged for another 30 min at 40,000 rpm. The propylene glycol supernatant was then assayed using a UV-HPLC method. The water supernatant was ultra-centrifuged for a third time before assay.

[8] = tested on: RS4;11 Acute Lymphoblastic Leukemia Xenograft; experiment: Efficacy of Compound A (HP-β-CD) at different infusion length in RS4;11 xenograft model in rats; format: in vivo, rat; conditions: single IV 5 hr infusion, 30% HP-β-CD
Method: Rag2−/− rats purchased from (SAGE) were inoculated with RS4;1 (10×10^6 cells/rat). When tumors grew to approximately […], rats were randomized to vehicle control (30% HP-β-CD) or Compound A 5 mg/kg in Vehicle 1) delivered as a single IV 30 min infusion (FIG. 6) and Vehicle control (30% HP-β-CD) or Compound A 5 mg/kg, 3 mg/kg and 1 mg/kg in Vehicle 1 delivered as a single IV 5 hr infusion (FIG. 7). The tumor sizes were measured twice a week and calculated as: Tumor Volume=(A×B^2)/2 where A and B are the tumor length and width (in mm), respectively.

[9] = Cardiovascular telemetry studies in the rat; conditions: Compound A 10 mg/kg, single 30-minute intravenous infusion
Method: The telemetry transmitters were placed in the abdominal muscle and the arterial blood pressure catheter was placed in the abdominal aorta. The ECG electrodes were sutured to the dorsal surface of the xiphoid process and at the anterior mediastinum.
Compound A was administered at dose levels of 0 and 10 mg/kg.
Cardiovascular parameters were recorded continuously via receivers placed beneath the home cage for at least 1 hour pre-dose and up to 72 hours post-dose. Blood samples were taken to determine the level of plasma exposure of Compound A and all dendrimers, with clinical pathology and limited tissues for target organ histopathology taken from animals dosed with the macromolecule constructs only.

NCI-H1048 tumor cells = experiment: In vivo anti-tumor activity in human small cell lung cancer tumor model (NCI-H1048); design: species or system mouse; conditions: 15 mg/kg daily (qd), oral
Method: AZD2014 was formulated in 0.5% hydroxypropyl methylcellulose/0.1% Tween 80 and dosed oral in a volume of 10 ml/kg 5×10^6 NCI-H1048 tumor cells were injected subcutaneously in the right flank of C.B.-17 SCID female mice in a volume of 0.1 mL containing 50% matrigel. Tumor volume (measured by caliper) was calculated using the formula:length (mm)×width (mm)^2×0.52. For efficacy studies, mice were randomized based on tumor volume and growth inhibition was assessed by comparison of the differences in tumor volume between control and treated groups. Dosing began when mean tumor volume reached approximately 124 mm^3.

What does the source list for rituximab [reference compound]?
T-C (SuDHL-4 xenograft; rituximab 10 mg/kg): >16 days; % Inhibition (TIC) Day (41) (SuDHL-4 xenograft; rituximab 10 mg/kg i.p. once a week for 5 weeks): 75.27%

With CC#CC(=O)N1CCC[C@H]1c1nc(-c2ccc(C(=O)Nc3ccccn3)cc2)c2c(N)nccn12 [acalabrutinib, reference compound] as the compound, how does the “tumor growth inhibition (TGI)” value (OCI-Ly10 tumor cells) read?
Its value is roughly 58%.

Which results are given for CN(CCO)CC[C@H](CSc1ccccc1)Nc1ccc(S(=O)(=O)NC(=O)c2ccc(N3CCC([C@@H](O)c4ccccc4-c4ccc(Cl)cc4)CC3)cc2)cc1S(=O)(=O)C(F)(F)F [Compound A, 4-(4-((R)-(4′-chlorobiphenyl-2-yl)(hydroxy)methyl)piperidin-1-yl)-N-(4-((R)-4-((2-hydroxyethyl)(methyl)amino)-1-(phenylthio)butan-2-ylamino)-3-(trifluoromethylsulfonyl)phenylsulfonyl)benzamide]?
fraction unbound at 30 h, 100 μmol/L [1]: 1.53e-05; % Inhibition Day (47) (RS4;11 cells; Compound A 5 mg/kg): >100%; % Regression Day(47) (RS4;11 cells; Compound A 5 mg/kg): 90%; regression (RS4;11 cells; Compound A HP-β-CD 10 mg/kg IV once): 90%; fraction unbound at 30 h, 100 μmol/L [2]: 2.35e-05; fraction unbound at 30 h, 100 μmol/L [3]: 1.96e-05; fraction unbound at 30 h, 100 μmol/L [4]: < 1e-05; logD [5]: > 3.5; fraction unbound at 30 h, 100 μmol/L [6]: < 1e-05; solubility at 24 h ([7]; organic solvent or mixture, propylene glycol): 6120 µg/mL (≈ 6.47 mM); solubility at 24 h ([7]; water, final pH 8.7): < 1 µg/mL; efficacy when the infusion was prolonged [8]: Comparable efficacy; Cardiovascular [9]: biphasic decrease in systolic and mean arterial blood pressure; also recorded: increases in heart rate; also recorded: decrease in QRS amplitude; In-life [9]: three rats were found dead and 3 found dead

With CNC(=O)c1cccc(-c2ccc3c(N4CCOC[C@@H]4C)nc(N4CCOC[C@@H]4C)nc3n2)c1 [AZD2014, vistusertib, reference compound] as the compound, how does the TGI (NCI-H1048 tumor cells) read?
The TGI was 84%.
